In patent US12662494B2, “Optically active bridged piperidine derivative” (Sumitomo Pharma Co., Ltd., priority 2018, dated 2026):

Legend:
[1] = target: T1, Menin-MLL binding (His-Menin1-615 and MLL1-172-FLAG) (Homo sapiens, UniProt O00255); experiment: Test 1: inhibition of the menin-MLL binding (HTRF); settings: for IC50: His-Menin1-615 30 nmol/L, MLL1-172-FLAG 50 nmol/L
T1 construct: Menin1-615 wherein 6× His tag and HA tag are inserted in the N-terminus; HA (N); myc (C)
T1 sequence (O00255 1-615 isoform O00255-1): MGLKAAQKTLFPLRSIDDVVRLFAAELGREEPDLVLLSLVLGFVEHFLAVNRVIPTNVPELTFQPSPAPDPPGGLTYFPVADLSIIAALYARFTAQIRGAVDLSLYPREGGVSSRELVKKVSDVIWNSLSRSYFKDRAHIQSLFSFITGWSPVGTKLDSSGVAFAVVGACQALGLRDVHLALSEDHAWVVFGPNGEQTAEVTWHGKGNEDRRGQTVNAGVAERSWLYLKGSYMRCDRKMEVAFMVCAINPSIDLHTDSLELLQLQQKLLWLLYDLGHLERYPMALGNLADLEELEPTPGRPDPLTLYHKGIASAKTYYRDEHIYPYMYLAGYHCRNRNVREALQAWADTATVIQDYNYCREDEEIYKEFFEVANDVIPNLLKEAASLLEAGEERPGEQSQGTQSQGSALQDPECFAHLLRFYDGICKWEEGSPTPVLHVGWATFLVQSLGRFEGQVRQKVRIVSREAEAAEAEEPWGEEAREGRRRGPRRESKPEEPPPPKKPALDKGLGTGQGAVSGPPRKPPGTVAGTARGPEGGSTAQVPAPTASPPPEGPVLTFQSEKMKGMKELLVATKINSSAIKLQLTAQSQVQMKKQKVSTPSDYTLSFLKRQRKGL
Experimental: Test 1: Test for Evaluating the Inhibition of the Menin-MLL Binding
Menin1-615 wherein 6× His tag and HA tag are inserted in the N-terminus, and myc tag is inserted in the C-terminus (hereinafter, referred to as His-Menin1-615), was diluted with an assay buffer (25 mmol/L HEPES, 150 mmol/L NaCl, 1 mmol/L dithiothreitol, 0.5% (w/v) Tween 80, 0.3% (w/v) BSA, 0.3% (w/v) skim milk) to adjust the final concentration to 30 nmol/L. The test compounds were also diluted with the assay buffer to adjust each concentration of the test compounds to 0.005 to 5 μmol/L. The prepared His-Menin1-615 and test compounds were added to a light-shielding 384-well low-volume plate (Corning, #4514) in 2 μL/well and […], respectively, and the plate was covered with a lid for light-shielding (Corning, #3935), and incubated at room temperature for 3 hours. After the incubation, MLL1-172 wherein FLAG tag is inserted in the C-terminus (MLL1-172-FLAG), was separately diluted with the assay buffer to adjust the final concentration to 50 nmol/L. The prepared MLL1-172-FLAG was added to the above plate in 2 μL/well, and the plate was covered with a lid for light-shielding and incubated at room temperature for an hour.
Then, anti-6HIS-d2 antibody (cisbio, 61HISDLA) and anti-FLAGM2-K antibody (cisbio, 61FG2KLA) were diluted with an antibody dilution buffer (50 mmol/L Tris, 150 mmol/L NaCl, 800 mmol/L KF, pH 7.4) to adjust the final concentration to 1.4 μg/mL to prepare an antibody mixture. The prepared antibody mixture was added to the above plate in 10 μL/well, and the plate was covered with a lid and incubated at 4° C. for 17 to 24 hours. After the incubation, the signal was detected with RUBYstar (BMG LABTECH).

[2] = test system: HOXA9; experiment: Test 3: inhibition of mRNA transcription, HOXA9 in MV4;11 cells; assay type: cell-based; settings: 20 to 24 hours, fitted with GAPDH
Experimental: (§1) Test 3: Test for the Inhibition of mRNA Transcription with Test Compounds
(§2) MV4; 11 cells were obtained from American Type Culture Collection (ATCC). The cells were cultured at 37° C. in the presence of 5% CO2 in RPMI 1640 medium containing 10% fetal bovine serum and 1% penicillin/streptomycin. To the MV4; 11 cells was added each test compound to adjust the final concentration to 1 μmol/L, and the cells were cultured at 37° C. in the presence of 5% CO2 for 20 to 24 hours. After the incubation, the total RNA was extracted from the cells with RNeasy™ Mini Kit (QIAGEN, 74106), and CDNA was synthesized with Superscript™ VILO™ CDNA Synthesis Kit (Invitrogen, #11754250). By using TaqMan™ Gene Expression Master Mix (Applied Biosystems, 4369016) and TaqMan™ probe (Applied Biosystems), the expression level of mRNA was quantified from the obtained cDNA with 7900HT (Applied Biosystems). The mRNA expression level of each obtained gene was fitted with the expression level of mRNA of GAPDH.

[3] = test system: RS4; 11 cells; experiment: Test 2: inhibition of cell proliferation, RS4;11; assay type: cell-based; settings: for IC50: Homo sapiens, 168 h, RS4;11 cells, 7 days, PrestoBlue cell viability; for cell proliferation inhibition activity, good (in words): summary of Test 2 table, RS4;11 and MOLM-13
Experimental: (§3) Test 2: Test for Evaluating the Inhibition of Cell Proliferation
(§4) RS4; 11 cells were obtained from American Type Culture Collection (ATCC). The cells were cultured at 37° C. in the presence of 5% CO2 in RPMI 1640 medium containing 10% fetal bovine serum and 1% penicillin/streptomycin. MOLM-13 cells were separately obtained from DSMZ (Deutsche Sammlung von Mikroorganismen und Zellkulturen GmbH). The cells were cultured at 37° C. in the presence of 5% CO2 in RPMI 1640 medium containing […] and 1% penicillin/streptomycin.
(§5) The cells were plated to a 96-well plate in 2000 cells/well, each test compound was added thereto to adjust the final concentration of DMSO to 0.1% of DMSO, and the cells were cultured for 7 days. After the cultivation, the cell viability was calculated with PrestoBlue™ Cell Viability Reagent (Invitrogen, A13261). The IC50 value was calculated from a survival curve, that corresponds to the concentration of the test compound at which the cell proliferation inhibition rate is 50%.

[4] = test system: MEIS1; experiment: Test 3: inhibition of mRNA transcription, MEIS1 in MV4;11 cells; assay type: cell-based; settings: for mRNA at 1 μM (% control) MEIS1: MV4;11 cells, 20 to 24 hours, fitted with GAPDH; for mRNA transcription inhibition activity (in words): summary of Test 3 table, MEIS1 and HOXA9, MV4;11 cells, 1 μM
Experimental: as §1, §2

[5] = test system: MOLM-13 cells; experiment: Test 2: inhibition of cell proliferation, MOLM-13; assay type: cell-based; settings: Homo sapiens, 168 h, 7 days, PrestoBlue cell viability
Experimental: as §3, §4, §5

[6] = Test 4: pharmacokinetic study, oral, mouse
Experimental: Test 4: Pharmacokinetic Study
The test compound suspended in 0.5% methylcellulose was orally administered to 7-week-old male NOD. CB17-Prkdcscid/J mouse in a dose of 100 mg/kg. The blood sample was taken from jugular vein without anesthesia over time for 24 hours. The blood sample was centrifuged to obtain plasma. The plasma was pre-treated by methanol extraction method, and then analyzed with an LC-MS/MS to determine the concentration of the test compound. Based on the data from 0 hour after the administration until the time (t) when there was the final detection in the plasma, AUC was calculated by trapezoidal method.

Row | SMILES | IC50 [1] [nM] | IC50 [3] [nM] | IC50 [5] [nM] | AUC(0-t) ([6]; male, NOD.CB17-Prkdcscid/J, plasma, po, 100 mg/kg) [ng·h/mL] | compound-exposure in plasma (in words) ([6]; summary of Test 4 table, oral 100 mg/kg) | menin-MLL binding inhibition activity (in words) ([1]; summary of Test 1 table) | mRNA at 1 μM (% control) HOXA9 [2] [% control] | cell proliferation inhibition activity, good (in words) [3] | mRNA at 1 μM (% control) MEIS1 [4] [% control] | mRNA transcription inhibition activity (in words) [4]
1 | N#Cc1cnc2sc(CC(F)(F)F)cc2c1N1CC2(CN(C(=O)[C@H]3N[C@H]4CC[C@@H]3[C@@H](F)[C@H]4CC3CC3)C2)C1 [Example 14, 4-{6-[(1S,3S,4S,5S,6S)-6-(cyclopropylmethyl)-5-fluoro-2-azabicyclo[2.2.2]octane-3-carbonyl]-2,6-diazaspiro[3.3]heptan-2-yl}-2-(2,2,2-trifluoroethyl)thieno[2,3-b]pyridine-5-carbonitrile] | 21.7 | 260 | 550 |  |  | potent menin-MLL binding inhibition activity | 51.4 | good cell proliferation inhibition activity | 38.5 | mRNA transcription inhibition activity
2 | O=C([C@H]1N[C@H]2CC[C@@H]1[C@@H](F)[C@H]2CC1CC1)N1CC2(C1)CN(c1c(C(F)(F)F)cnc3sc(CC(F)(F)F)cc13)C2 [Example 13, [(1S,3S,4S,5S,6S)-6-(cyclopropylmethyl)-5-fluoro-2-azabicyclo[2.2.2]octan-3-yl]{6-[2-(2,2,2-trifluoroethyl)-5-(trifluoromethyl)thieno[2,3-b]pyridin-4-yl]-2,6-diazaspiro[3.3]heptan-2-yl}methanone] | 54.2 | 440 | 690 |  |  |  | 45.4 | good cell proliferation inhibition activity | 39.6 | mRNA transcription inhibition activity
3 | C=C1C[C@@H]2CC[C@H]1[C@@H](C(=O)N1CC3(C1)CN(c1c(C(F)(F)F)cnc4sc(CC(F)(F)F)cc14)C3)N2 [Example 5, [(1S,3S,4R)-5-methylidene-2-azabicyclo[2.2.2]octan-3-yl]{6-[2-(2,2,2-trifluoroethyl)-5-(trifluoromethyl)thieno[2,3-b]pyridin-4-yl]-2,6-diazaspiro[3.3]heptan-2-yl}methanone] | 92.7 | 200 | 280 |  |  |  | 44.3 |  | 32.3 | 
4 | O=C([C@H]1N[C@H]2CC[C@@H]1C[C@H]2CC1CC1)N1CC2(C1)CN(c1c(C(F)(F)F)cnc3sc(CC(F)(F)F)cc13)C2 [Example 3, [(1S,3S,4R,6R)-6-(cyclopropylmethyl)-2-azabicyclo[2.2.2]octan-3-yl]{6-[2-(2,2,2-trifluoroethyl)-5-(trifluoromethyl)thieno[2,3-b]pyridin-4-yl]-2,6-diazaspiro[3.3]heptan-2-yl}methanone] | 88.6 | 590 | 800 |  |  |  | 54.0 |  | 52.6 | 

The next lines start with results.

Row | IC50 [1] [nM] | IC50 [3] [nM] | IC50 [5] [nM] | AUC(0-t) ([6]; male, NOD.CB17-Prkdcscid/J, plasma, po, 100 mg/kg) [ng·h/mL] | compound-exposure in plasma (in words) ([6]; summary of Test 4 table, oral 100 mg/kg) | SMILES | menin-MLL binding inhibition activity (in words) ([1]; summary of Test 1 table) | mRNA at 1 μM (% control) HOXA9 [2] [% control] | cell proliferation inhibition activity, good (in words) [3] | mRNA at 1 μM (% control) MEIS1 [4] [% control] | mRNA transcription inhibition activity (in words) [4]
5 | 7.3 | 60 | 90 | 8970 | good compound-exposure in plasma | N#Cc1cnc2sc(CC(F)(F)F)cc2c1N1CC2(CN(C(=O)[C@H]3N[C@H]4CC[C@@H]3[C@H](F)[C@@H]4CC3CC3)C2)C1 [Example 12, 4-{6-[(1S,3S,4S,5R,6R)-6-(cyclopropylmethyl)-5-fluoro-2-azabicyclo[2.2.2]octane-3-carbonyl]-2,6-diazaspiro[3.3]heptan-2-yl}-2-(2,2,2-trifluoroethyl)thieno[2,3-b]pyridine-5-carbonitrile] |  | 42.6 |  | 18.4 | 
6 | 48 | 290 | 710 |  |  | N#Cc1cnc2sc(CC(F)(F)F)cc2c1N1CC2(CN(C(=O)[C@H]3N[C@H]4CC[C@@H]3C[C@H]4CC3CC3)C2)C1 [Example 4, 4-{6-[(1S,3S,4R,6R)-6-(cyclopropylmethyl)-2-azabicyclo[2.2.2]octane-3-carbonyl]-2,6-diazaspiro[3.3]heptan-2-yl}-2-(2,2,2-trifluoroethyl)thieno[2,3-b]pyridine-5-carbonitrile] |  | 52.5 |  | 47.1 | 
7 | 9 | 90 | 200 |  |  | C=C1C[C@@H]2CC[C@H]1[C@@H](C(=O)N1CC3(C1)CN(c1c(C#N)cnc4sc(CC(F)(F)F)cc14)C3)N2 [Example 6, 4-{6-[(1S,3S,4R)-5-methylidene-2-azabicyclo[2.2.2]octane-3-carbonyl]-2,6-diazaspiro[3.3]heptan-2-yl}-2-(2,2,2-trifluoroethyl)thieno[2,3-b]pyridine-5-carbonitrile] |  | 45.9 |  | 27.4 | 
8 | 7 | 190 | 260 |  |  | N#Cc1cnc2sc(CC(F)(F)F)cc2c1N1CC2(CN(C(=O)[C@H]3N[C@H]4CC[C@@H]3C[C@@H]4CC3CC3)C2)C1 [Example 2, 4-{6-[(1S,3S,4R,6S)-6-(cyclopropylmethyl)-2-azabicyclo[2.2.2]octane-3-carbonyl]-2,6-diazaspiro[3.3]heptan-2-yl}-2-(2,2,2-trifluoroethyl)thieno[2,3-b]pyridine-5-carbonitrile] |  | 48.2 |  | 26.6 | 
